According to patent publication US9062057B2, “CCR5 antagonists for treating HIV” (Purdue Research Foundation, priority 2010, dated 2015):

What follows are compounds tested against CCR5 chemokine receptor (Homo sapiens, UniProt P51681) (assay: Inhibition Data (IC50; no method described)). Conditions: assay not described, read-out: Activity (*) (IC50 class).
CCR5 chemokine receptor, sequence (P51681 whole entry): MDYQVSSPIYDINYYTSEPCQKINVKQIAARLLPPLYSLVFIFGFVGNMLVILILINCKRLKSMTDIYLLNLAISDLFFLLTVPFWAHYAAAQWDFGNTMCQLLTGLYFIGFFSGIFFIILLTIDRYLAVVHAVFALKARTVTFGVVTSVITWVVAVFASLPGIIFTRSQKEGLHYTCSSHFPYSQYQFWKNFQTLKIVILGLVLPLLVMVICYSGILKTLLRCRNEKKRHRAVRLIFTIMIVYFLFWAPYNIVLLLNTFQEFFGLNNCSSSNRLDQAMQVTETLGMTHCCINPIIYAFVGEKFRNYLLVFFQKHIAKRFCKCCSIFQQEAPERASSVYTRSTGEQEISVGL

`CN(C[C@@](C)(CCN1CC[C@@H]2[C@@H](CCN2C(=O)OC(C)(C)C)C1)c1ccccc1)S(=O)(=O)c1ccccc1` [Example 1] and `CN(C[C@@](C)(CCN1CC[C@H]2[C@H](CCN2C(=O)OC(C)(C)C)C1)c1ccccc1)S(=O)(=O)c1ccccc1` [Example 2] cannot be ordered by IC50: under 1 nM for the first, under 1000 nM for the second.

`CN(C[C@@](C)(CCN1CC[C@H]2[C@H](CCN2C(=O)OC(C)(C)C)C1)c1ccccc1)S(=O)(=O)c1ccc(CNC(=O)O[C@H]2CCOC2)cc1` [Example 3] and `CN(C[C@@](C)(CCN1CC[C@@H]2[C@@H](CCN2C(=O)OC(C)(C)C)C1)c1ccccc1)S(=O)(=O)c1ccc(CNC(=O)O[C@H]2CCOC2)cc1` [Example 4] cannot be ordered by IC50: under 1000 nM for the first, under 1 nM for the second.

`CN(C[C@@](C)(CCN1C2CCC1CC(NC(=O)OCc1ccccc1)C2)c1ccccc1)S(=O)(=O)c1ccccc1` (stereo partly shown) [Example 5] and `CC(C)COC(=O)NC1CC2CCC(C1)N2CC[C@](C)(CN(C)S(=O)(=O)c1ccccc1)c1ccccc1` (stereo partly shown) [Example 20] cannot be ordered by IC50: under 100 nM for the first, under 100 nM for the second.

`CN(C[C@@](C)(CCN1C2CCC1CC(NC(=O)OCc1ccccc1)C2)c1ccccc1)S(=O)(=O)c1ccccc1` (stereo partly shown) [Example 6] and `CN(C[C@@](C)(CCN1C2CCC1CC(NC(=O)O[C@H]1CCOC1)C2)c1ccccc1)S(=O)(=O)c1ccccc1` (stereo partly shown) [Example 21] cannot be ordered by IC50: under 100 nM for the first, under 100 nM for the second.

`CN(C[C@@](C)(CCN1CC[C@H]2CN(C(=O)OCc3ccccc3)C[C@H]2C1)c1ccccc1)S(=O)(=O)c1ccccc1` [Example 7] and `C[C@@H](NC(=O)N1CC2CCN(CC[C@](C)(CN(C)S(=O)(=O)c3ccccc3)c3ccccc3)C[C@@H]2C1)c1ccccc1` (stereo partly shown) [Example 12] cannot be ordered by IC50: under 100 nM for the first, under 100 nM for the second.

`CN(C[C@@](C)(CCN1CC[C@H]2CNC[C@H]2C1)c1ccccc1)S(=O)(=O)c1ccccc1` [Example 8] and `CN(C[C@@](C)(CCN1CC[C@H]2CN(C(=O)OC(C)(C)C)C[C@H]2C1)c1ccccc1)S(=O)(=O)c1ccccc1` [Example 9] cannot be ordered by IC50: under 1000 nM for the first, under 100 nM for the second.

`CN(C[C@@](C)(CCN1C[C@H]2CCN(C(=O)OC(C)(C)C)C[C@H]2C1)c1ccccc1)S(=O)(=O)c1ccccc1` [Example 10] and `CN(C[C@@](C)(CCN1CC2CCN(C(=O)OC(C)(C)C)C2C1)c1ccccc1)S(=O)(=O)c1ccccc1` (stereo partly shown) [Example 22] cannot be ordered by IC50: under 100 nM for the first, under 1000 nM for the second.

`CN(C[C@@](C)(CCN1CC[C@H]2CN(C(=O)OCc3ccccc3)C[C@H]2C1)c1ccccc1)S(=O)(=O)c1ccccc1` [Example 11] and `C[C@@H](NC(=O)N1CC2CCN(CC[C@](C)(CN(C)S(=O)(=O)c3ccccc3)c3ccccc3)C[C@@H]2C1)c1ccccc1` (stereo partly shown) [Example 13] cannot be ordered by IC50: under 100 nM for the first, under 100 nM for the second.

`C[C@H](NC(=O)N1C[C@H]2CN(CC[C@](C)(CN(C)S(=O)(=O)c3ccccc3)c3ccccc3)CC[C@H]2C1)c1ccccc1` [Example 14] and `C[C@H](c1ccccc1)N(C)C(=O)N1C[C@H]2CN(CC[C@](C)(CN(C)S(=O)(=O)c3ccccc3)c3ccccc3)CC[C@H]2C1` [Example 15] cannot be ordered by IC50: under 1000 nM for the first, under 100 nM for the second.

`Cc1nnc(C(C)C)n1C1CC2CCC(C1)N2CC[C@](C)(CN(C)S(=O)(=O)c1ccccc1)c1ccccc1` (stereo partly shown) [Example 16] and `CN(CC(C)(CCN1CCC2C(CCN2C(=O)OC(C)(C)C)C1)c1ccccc1)S(=O)(=O)c1ccccc1` (stereo not shown) [Example 25] cannot be ordered by IC50: under 10 nM for the first, under 10 nM for the second.

`C[C@H](NC(=O)N1CC2CN(CC[C@](C)(CN(C)S(=O)(=O)c3ccccc3)c3ccccc3)CC[C@H]2C1)c1cccc2ccccc12` (stereo partly shown) [Example 17] and `Cc1ccc(S(=O)(=O)N2C[C@H]3CN(CC[C@](C)(CN(C)S(=O)(=O)c4ccccc4)c4ccccc4)CC[C@H]3C2)cc1` [Example 18] cannot be ordered by IC50: under 1000 nM for the first, under 1000 nM for the second.

`Cc1nc(COC(=O)N2C[C@H]3CN(CC[C@](C)(CN(C)S(=O)(=O)c4ccccc4)c4ccccc4)CC[C@H]3C2)c(C)o1` [Example 19] and `CC(C)(C)OC(=O)N1CCC2CN(C(=O)[C@H](Cc3ccccc3)NC(=O)OCc3ccccc3)CCC21` (stereo partly shown) [Example 26] cannot be ordered by IC50: under 1000 nM for the first, under 1000 nM for the second.

`CC(C)(C)OC(=O)N1CCC2CN(C(=O)[C@@H](N)Cc3ccccc3)CCC21` (stereo partly shown) [Example 27] showed an IC50 of under 1000 nM.
